Experimental data: PMC11434960, “Evaluation of [^68Ga]Ga-DOTA-AeK as a Potential Imaging Tool for PET Imaging of Cell Wall Synthesis in Bacterial Infections” (Pharmaceuticals, 2024)
Entries after “also recorded” stand apart in the source; their conditions may differ. Read-outs that look alike come from different tables or passages of the source. Starred links: 1 amine or outer side, 2 acyl side, 3 side chain; linkers in the order of their positions; H or OH if unused. Non-standard residues stand in square brackets, D forms with d. Residues, ends and D or L forms follow the SMILES beside them. *: point of attachment. DOTA = O=C(O)CN1CCN(CC(=O)O)CCN(CC(=O)*)CCN(CC(=O)O)CC1; d(γGlu) = O=C(O)[C@@H](CCC(=O)[*:2])N[*:1]

Columns and labels:
[1] = format: physicochemical
Procedure: The compound hydrophobicity was determined using the octanol–water partition coefficient “shake flask method” described by Lambidis et al.. In brief, 100 µL of purified [^68Ga]Ga-DOTA-AeK was added to 400 µL of ultrapure water. The aqueous solution was added to an equal volume of 1-octanol (Sigma-Aldrich, Darmstadt, Germany), and the mixture was mechanically shaken for approximately 3 min at room temperature. The sample was centrifuged at 16,211 g for 5 min using a Digicen 21 R centrifuge (Orto Alresa, Madrid, Spain). The aqueous and organic phases of the sample were separated, and samples from each phase were analyzed using a dose calibrator. The logarithmic partition coefficient, Log P, was calculated using the following formula:Log P = Log [(counts in octanol/counts in water)](1)

[2] = format: in vitro ADME
Procedure: The plasma protein binding filter assay described by Müller et al. was adopted. Before the experiment, Amicon® Ultra-0.5 centrifugal 10 kDa MWCO filter units (Merck, Darmstadt, Germany) were pre-washed with 200 µL of phosphate-buffered saline (PBS) for 20 min at 18,611 g using the Microfuge 16 centrifuge (Beckman Coulter Life Sciences, Brea, CA, USA). Subsequently, 800 µL of plasma was spiked with 200 µL of purified [^68Ga]Ga-DOTA-AeK, vortexed for 3 s, and incubated for 120 min at 37 °C. For radioanalysis, a 100 µL plasma sample was taken at different time intervals (30, 60, and 120 min), diluted (1:1) with PBS, aliquoted into filter units, and centrifuged at 14,800 rpm for 20 min. A similar procedure was carried out in PBS (140 mM NaCl, 10 mM phosphate buffer, and 3 mM KCl, pH 7.4) as a control. After centrifugation, each filter unit was washed by adding 100 µL of PBS (140 mM NaCl, 10 mM phosphate buffer, and 3 mM KCl, at pH 7.4, and centrifuged as described above. The counts of the filtrate fraction (representing unbound compound) and on the filter (protein-bound compound) were measured using a Capintec Captus 4000E well counter (Florham Park, NJ, USA). The percentage of the protein-bound radiotracer was calculated using the following equation:% Protein bound = [counts in filter ÷ total counts (filtrate fraction+ filter)] × 100(2)

[3] = test system: E. coli; experiment: Bacterial cell uptake of radiotracer in live and heat-killed cultures; format: cell-based, Escherichia coli; conditions: 37 °C
Procedure: (§1) Overnight bacterial cell cultures of E. coli or S. aureus were grown in Tryptic Soy Broth (TSB) medium at 37 °C. The […] McFarland standard was prepared using DEN-18 McFarland Densitometer (Biosan, Riga, Latvia). For control studies, the same amount of bacterial culture was heat-killed via 30 min incubation at 90 °C. The culture viability was confirmed using agar plating with overnight incubation. All tests were initiated by adding 4.1 ± 1.23 MBq of [^68Ga]Ga-DOTA-AeK product solution (4.86 ± 1.45 GBq/µmol) to 1.0 mL of the bacterial suspension (1.8 × 10^8 cells/mL), and mixtures were maintained while shaking at 37 °C. At specific time intervals (10, 60, and 120 min), samples of the suspension were centrifuged at 16,211 g for 10 min (Digicen 21R, United Scientific, Goodwood, South Africa), and the supernatant was transferred into a plastic tube. The pellet was washed with 3 mL of PBS (140 mM sodium chloride, 10 mM phosphate buffer, and 3 mM potassium chloride, pH 7.4) and centrifuged at 16,211 g for 10 min. […] The radioactivity in the supernatant and pellet fraction were measured using an automatic gamma counter (Hidex AMG, LabLogic, Turku, Finland). The percentile of [^68Ga]Ga-DOTA-AeK cell uptake was calculated as follows:Uptake (%) = [counts in cell pellet ÷ total counts (cell pellet + supernatants)] × 100(3)

[4] = test system: S. aureus; experiment: as above; format: cell-based, Staphylococcus aureus; conditions: 37 °C
Procedure: as §1

[5] = format: in vivo, BALB/c mice; conditions: mouse, in vivo, iv, Ex vivo organ biodistribution
Procedure: (§2) Six-to-eight-week-old mixed-gender BALB/c mice (20.0 ± 2.1 g) were utilized. Animals were pre-grouped (two mice/cage) into individually ventilated cages (IVC, Tecniplast, Buguggiate, Italy) and kept under standard housing conditions (22 ± 2 °C, 55 ± 10% humidity, 15 ± 5 Pa, and 12 h light/dark cycles) with food and water being provided ad libitum. Each experimental group consisted of 5 animals.
(§3) A thigh muscle mouse model of infection and inflammation was developed for imaging purposes by adopting procedures from a previous study with some modifications. In brief, animals were inoculated intramuscularly (right hind leg) with 1.5 × 10^7 colony forming units (CFU)/mL of S. aureus or E. coli suspended in 100 µL of culture media. To induce sterile inflammation, the same mice received 100 µL of a turpentine oil solution intramuscularly into the left hind leg. Infection was allowed to develop for 3–5 days, which is typical for a model of chronic infections, and a health check, including monitoring of the infection and inflammation sites, was conducted. At 3 and 5 days after the inoculations, all animals underwent whole-body [^68Ga]Ga-DOTA-AeK microPET/CT imaging, and after euthanasia, a complete ex vivo organ tissue biodistribution radioactive assay was performed.
(§4) A total volume of 100 µL of [^68Ga]Ga-DOTA-AeK (7.4 ± 2.0 MBq, 5% EtOH/PBS, pH 7.0) was administered as an intravenous bolus via the tail vein. At the same time, the animals were kept anesthetized, (4% isoflurane in oxygen for induction and 1.5–2.5% for maintenance). Non-invasive, whole-body microPET/CT imaging was performed using a Mediso nanoScan® PET/CT scanner (Budapest, Hungary). A previously described, image acquisition was performed. The PET/CT imaging procedure consisted of static whole-body scans per animal commencing at 60 min post-injection. The imaging protocol included the X-ray topogram (30 s) to ascertain the correct animal placement followed by CT image acquisition (4–5 min) and 20 min long PET image acquisition. Image reconstruction and analysis were performed as previously described.
(§5) After PET/CT imaging, the mice were euthanized via cervical dislocation while still under anesthesia. The different organs (spleen, pancreas, stomach, intestine, kidneys, liver, heart, lung, muscle, and femur) were collected into pre-weighed tubes. The radioactivity of each sample was determined using an automatic gamma counter (Hidex AMG, Turku, Finland). Results were expressed as a percentage of injected dose per gram organ (%ID/g). Subsequently, both muscles on the left and right thighs were fixed in 4% paraformaldehyde and submitted to the University of Pretoria, Department of Paraclinical Science, for hematoxylin and eosin (H&E) and Gram staining. Infection and inflammation tissue analysis was performed by a qualified pathologist.

[6] = test system: E. coli; format: in vivo, BALB/c mice
Procedure: as §2, §3, §4, §5

[7] = format: in vivo, BALB/c mice; conditions: mouse, in vivo, iv, Ex vivo organ biodistribution; remark: listed apart in the source
Procedure: as §2, §3, §4, §5

[8] = test system: S. aureus; format: in vivo, BALB/c mice
Procedure: as §2, §3, §4, §5

[9] = test system: E. coli; experiment: Bacterial uptake and incorporation of AeK-NBD, flow cytometry; format: cell-based, Escherichia coli
Procedure: (§6) Bacterial cell cultures (either live or heat-killed) of E. coli or S. aureus (1.0 McFarland standard) were prepared as described above. For bacterial staining, 2.0 μL (100 mM in DMSO) of fluorescent AeK-NBD was added to 198 μL of bacterial culture (7.7 × 10^7 cells/mL), and cells were counterstained with 2.0 μL (10 μM in DMSO) of membrane-permeable DNA Vybrant DyeCycle (VDC) Ruby dye (Thermo Fisher Scientific, Waltham, MA, USA). All cultures were incubated at 37 °C, and samples were taken at different intervals (10, 30, and 60 min) to perform flow cytometric analysis (Cytoflex, Beckman Coulter Life Sciences, Brea, CA, USA). AeK-NBD was excited with a 488 nm laser, and the emitted fluorescence was collected using a 540/30 nm band pass filter, as carried out previously. The VDC Ruby dye was excited with a 638 nm laser, and the emitted fluorescence was collected using a 712/25 nm band pass filter. No noticeable spillover was observed when VDC Ruby ‘only’ and AeK-NBD ‘only’ controls were used as controls for possible fluorescence spillover. […] The NBD-AeK median fluorescence intensity (MFI) of VDC Ruby-positive bacteria was reported. […]
(§7) Sample preparation of E. coli and S. aureus suspensions for confocal fluorescence microscopy imaging involved immediate staining with AeK-NBD and membrane-permeable DNA VDC Ruby dye for 10 min, as described in the previous section. […]

[10] = test system: S. aureus; experiment: as above; format: cell-based, Staphylococcus aureus
Procedure: as §6, §7

[11] = test system: E. coli; set-up: method as in PMID 3891732; conditions: in vitro; cited from earlier work

C[C@H](N)C(=O)N[C@H](CCC(=O)N[C@@H](CCCCNC(=O)CN1CCN(CC(=O)O)CCN(CC(=O)O)CCN(CC(=O)O)CC1)C(=O)O)C(=O)O [[^68Ga]Ga-DOTA-AeK, metal not drawn] (H-Ala-[d(γGlu)]-Lys(DOTA)-OH)
logP [1]: -1.08
tracer recovered within the aqueous phase ([1]; octanol/water partition, n = 3): 92.3 ± 0.04%
protein-bound fraction [2]: approximately 10.18 ± 6.9%
cellular uptake, live versus heat-killed bacteria ([3]; any time point up to 120 min): No significant increase in radioactivity above the heat-killed bacterial cells
radiotracer detected in the medium ([3]; up to 120 min): ~ 98%
cellular uptake, live versus heat-killed bacteria ([4]; any time point up to 120 min): No significant increase in radioactivity above the heat-killed bacterial cells
radiotracer detected in the medium ([4]; up to 120 min): ~ 98%
tissue uptake at 1 h ([5]; Brain): 0.1 %ID/g
tissue uptake at 1 h ([5]; Heart): 0.8 ± 0.4 %ID/g
tissue uptake at 1 h ([5]; Inflammation): 0.9 %ID/g
tissue uptake at 1 h ([5]; Liver): 1.1 ± 0.2 %ID/g
tissue uptake at 1 h ([5]; Lungs): 1 ± 0.1 %ID/g
tissue uptake at 1 h ([5]; Muscle): 0.7 ± 0.4 %ID/g
tissue uptake at 1 h ([5]; Pancreas): 0.6 ± 0.3 %ID/g
tissue uptake at 1 h ([5]; Thyroid): 1 ± 0.7 %ID/g
uptake in the infectious foci (PET/CT and ex vivo tissue counting) ([6]; E. coli, Day 3 and Day 5 post-inoculation, 60 min after iv injection): no significant uptake in the infectious foci
clearance route ([6]; mouse, in vivo): rapid clearance mainly via renal excretion
Ex vivo organ biodistribution, Brain ([6]; mouse, in vivo, iv, 1 h): 0.2 ± 0.2 %ID/g
Ex vivo organ biodistribution, Heart ([6]; mouse, in vivo, iv, 1 h): 1.6 ± 1.3 %ID/g
Ex vivo organ biodistribution, Kidneys ([6]; mouse, in vivo, iv, 1 h): 2.9 ± 0.7 %ID/g
Ex vivo organ biodistribution, Liver ([6]; mouse, in vivo, iv, 1 h): 1.2 ± 0.4 %ID/g
Ex vivo organ biodistribution, Lungs ([6]; mouse, in vivo, iv, 1 h): 2.0 ± 0.4 %ID/g
tissue uptake at 1 h ([7]; Brain): 0.1 %ID/g
tissue uptake at 1 h ([7]; Intestines): 1.2 ± 1.9 %ID/g
tissue uptake at 1 h ([7]; Stomach): 0.7 ± 0.5 %ID/g
uptake in the infectious foci (PET/CT and ex vivo tissue counting) ([8]; S. aureus, Day 3 and Day 5 post-inoculation, 60 min after iv injection): no significant uptake in the infectious foci
clearance route ([8]; mouse, in vivo): rapid clearance mainly via renal excretion
Ex vivo organ biodistribution, Adipose ([8]; mouse, in vivo, iv, 1 h): 1.9 ± 0.3 %ID/g
Ex vivo organ biodistribution, Brain ([8]; mouse, in vivo, iv, 1 h): 0.2 ± 0.0 %ID/g
Ex vivo organ biodistribution, Femur ([8]; mouse, in vivo, iv, 1 h): 2.0 ± 0.2 %ID/g
Ex vivo organ biodistribution, Heart ([8]; mouse, in vivo, iv, 1 h): 3.7 ± 0.5 %ID/g
Ex vivo organ biodistribution, Infection ([8]; mouse, in vivo, iv, 1 h): 0.9 ± 0.3 %ID/g
Ex vivo organ biodistribution, Intestines ([8]; mouse, in vivo, iv, 1 h): 1.8 ± 0.8 %ID/g
Ex vivo organ biodistribution, Kidneys ([8]; mouse, in vivo, iv, 1 h): 7.0 ± 0.1 %ID/g
Ex vivo organ biodistribution, Pancreas ([8]; mouse, in vivo, iv, 1 h): 2.3 ± 0.2 %ID/g
Ex vivo organ biodistribution, Spleen ([8]; mouse, in vivo, iv, 1 h): 1.6 ± 0.6 %ID/g
Ex vivo organ biodistribution, Stomach ([8]; mouse, in vivo, iv, 1 h): 1.1 ± 0.4 %ID/g

L-Ala-γ-D-Glu-L-Lys-N-7-nitro-2,1,3-benzoxadiazol-4-yl [AeK-NBD]
time at which bacterial incorporation was observed ([9]; E. coli, 37 °C): 10 min
fluorescence intensity in live cells (flow cytometry) ([9]; live E. coli, significantly decreased in heat-killed cultures (p < 0.05), up to 60 min): high fluorescence intensity
time at which bacterial incorporation was observed ([10]; S. aureus, 37 °C): 10 min
fluorescence intensity in live cells (flow cytometry) ([10]; live S. aureus, significantly decreased in heat-killed cultures (p < 0.05), up to 60 min): high fluorescence intensity

L-Ala-γ-D-Glu-[^3H]A2pm
bacterial uptake / utilisation in PG recycling pathway [11]: successful in vitro integration; also recorded: effectively utilized by E. coli

^3H-labeled disaccharide-(L-Ala-D-Glu-meso-A2pm) tripeptide
bacterial uptake / utilisation in PG recycling pathway [11]: lack of bacterial uptake and internalization
